{"source": "patent US20260014153A1", "about": "“ELACESTRANT IN COMBINATION WITH ABEMACICLIB IN WOMEN WITH BREAST CANCER” (RADIUS PHARMACEUTICALS, INC., priority 2018, published 2026)", "key": {"[1]": {"tested_on": "tumors expressing Y537S ERα", "assay": "growth of tumors expressing mutant ERα", "format": "in vivo"}, "[2]": {"tested_on": "breast cancer tumor", "assay": "animal xenograft model of breast cancer", "details": "in vivo"}, "[3]": {"tested_on": "uterine tissues", "assay": "estradiol stimulation of uterine tissues in ovariectomized rats", "format": "in vivo"}, "[4]": {"tested_on": "ER+ breast cancer", "details": "monotherapy; models including fulvestrant-insensitive, estrogen-independent and/or ESR1-mutant; cited from earlier work"}, "[5]": {"assay": "standardized uptake value in tissues not significantly expressing ER", "format": "in vivo, human", "details": "200 mg or up to 500 mg q.d.; uterus, muscle, bone tissues not significantly expressing ER"}, "[6]": {"molecular_target": "T1, ERα (Homo sapiens, UniProt P03372)", "T1 sequence (P03372 1-595)": "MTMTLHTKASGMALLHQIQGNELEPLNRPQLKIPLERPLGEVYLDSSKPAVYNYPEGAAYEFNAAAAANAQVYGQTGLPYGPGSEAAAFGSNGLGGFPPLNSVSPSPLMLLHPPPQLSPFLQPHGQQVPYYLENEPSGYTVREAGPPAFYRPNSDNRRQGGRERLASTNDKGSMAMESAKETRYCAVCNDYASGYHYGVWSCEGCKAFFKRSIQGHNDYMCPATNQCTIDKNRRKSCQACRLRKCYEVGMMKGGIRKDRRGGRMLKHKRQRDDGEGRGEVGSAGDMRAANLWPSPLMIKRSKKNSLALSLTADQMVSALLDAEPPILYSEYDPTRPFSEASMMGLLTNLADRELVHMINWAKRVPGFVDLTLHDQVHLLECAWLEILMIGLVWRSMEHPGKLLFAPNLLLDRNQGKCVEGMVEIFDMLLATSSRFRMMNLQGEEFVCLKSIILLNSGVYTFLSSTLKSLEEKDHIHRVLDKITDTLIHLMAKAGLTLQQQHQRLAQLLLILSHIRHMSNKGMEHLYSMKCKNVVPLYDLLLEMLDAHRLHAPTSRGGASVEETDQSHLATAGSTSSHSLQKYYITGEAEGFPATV", "details": "cited from earlier work"}, "[7]": {"tested_on": "brain metastasis xenograft", "assay": "brain metastasis xenograft model", "details": "in vivo"}, "[8]": {"tested_on": "tumors expressing wild-type ERα", "assay": "growth of tumors expressing wild-type ERα", "format": "in vivo"}, "[9]": {"molecular_target": "T2, ER in the uterus and pituitary (Homo sapiens, UniProt P03372)", "T2 construct": "from tissue; host or cells: uterus and pituitary, in vivo", "T2 sequence (P03372 1-595)": "T1 sequence (P03372 1-595)", "assay": "estradiol binding to ER by FES-PET imaging", "format": "in vivo", "details": "uterine and pituitary tissue", "description": "In these experiments, estradiol binding to ER in uterine and pituitary tissue was evaluated by FES-PET imaging."}, "[10]": {"tested_on": "ER+ breast cancer with both wild-type and mutant ESR1", "details": "models of ER+ breast cancer, single agent and in combination with a CDK4/6 inhibitor; cited from earlier work"}, "[11]": {"assay": "half life after PO dosing", "format": "in vivo", "details": "humans"}, "[12]": {"assay": "bone loss in ovariectomized rats", "format": "in vivo"}}, "data": [{"smiles": "CCNCCc1ccc(CN(CC)c2cc(OC)ccc2[C@@H]2CCc3cc(O)ccc3C2)cc1", "note": "[RAD1901]", "values": [{"measurement": "inhibition of tumor growth", "setting": "[1]", "value": "unexpected ability to inhibit the growth of tumors"}, {"measurement": "accumulation within tumor cells", "setting": "[2]", "value": "significant accumulation"}, {"measurement": "breast cancer tumor growth", "setting": "[2]", "value": "inhibiting breast cancer tumor growth"}, {"measurement": "estradiol stimulation of uterine tissues", "setting": "[3]", "value": "antagonized estradiol stimulation"}, {"measurement": "antitumor activity", "setting": "[4]", "value": "demonstrated antitumor activity"}, {"measurement": "change in standardized uptake value (SUV) pre- and post-treatment", "setting": "[5]", "value": "hardly any changes"}, {"measurement": "binding preference ERα versus ERβ", "setting": "[6]", "value": "preferentially bind ERα"}, {"measurement": "blood-brain barrier penetration", "setting": "[7]", "value": "capable of penetrating the blood-brain barrier"}, {"measurement": "survival", "setting": "[7]", "value": "significantly prolonged survival"}, {"measurement": "inhibition of tumor growth", "setting": "[8]", "value": "inhibit tumor growth"}, {"measurement": "observed level of ER binding after treatment", "setting": "[9]", "value": "at or below background levels"}, {"measurement": "inhibition of tumor growth", "setting": "[10]", "value": "effective in inhibiting tumor growth"}, {"measurement": "half life", "setting": "[11]", "value": "surprisingly long half life"}, {"measurement": "bone loss", "setting": "[12]", "value": "protects against bone loss"}]}]}
